# Data reported in US20250019385A1, “SPIROCYCLIC ANNULATED 2-AMINO-3-CYANO THIOPHENES AND DERIVATIVES FOR THE TREATMENT OF CANCER” (Boehringer Ingelheim International GmbH, priority 2023, published 2025).
# Target: CYP3A4 (Homo sapiens (Human), UniProt P08684)
# Test: Mechanism based inhibition of CYP3A4 assay (MBI 3A4)
# Type: in vitro ADME
# Details: human liver microsomes, 25 uM compound; hydroxy-midazolam formation after 30 min preincubation relative to 0 min
# Description: The time dependent inhibition towards CYP3A4 is assayed in human liver microsomes (0.02 mg/mL) with midazolam (15 μM) as a substrate. The test compounds and water control (wells w/o test compound) are preincubated in presence of NADPH (1 mM) with human liver microsomes (0.2 mg/mL) at a concentration of 25 uM for 0 min and 30 min. After preincubation, the incubate is diluted 1:10 and the substrate midazolam is added for the main incubation (15 min). The main incubation is quenched with acetonitrile and the formation of hydroxy-midazolam is quantified via LC/MS-MS. The formation of hydroxy-midazolam from the 30 min preincubation relative to the formation from the 0 min preincubation is used as a readout. Values of less than 100% mean that the substrate midazolam is metabolized to a lower extent upon 30 min preincubation compared to 0 min preincubation. In general low effects upon 30 min preincubation are desired (corresponding to values close to 100%/not different to the values determined with water control).
# Sequence of CYP3A4 (P08684 whole entry): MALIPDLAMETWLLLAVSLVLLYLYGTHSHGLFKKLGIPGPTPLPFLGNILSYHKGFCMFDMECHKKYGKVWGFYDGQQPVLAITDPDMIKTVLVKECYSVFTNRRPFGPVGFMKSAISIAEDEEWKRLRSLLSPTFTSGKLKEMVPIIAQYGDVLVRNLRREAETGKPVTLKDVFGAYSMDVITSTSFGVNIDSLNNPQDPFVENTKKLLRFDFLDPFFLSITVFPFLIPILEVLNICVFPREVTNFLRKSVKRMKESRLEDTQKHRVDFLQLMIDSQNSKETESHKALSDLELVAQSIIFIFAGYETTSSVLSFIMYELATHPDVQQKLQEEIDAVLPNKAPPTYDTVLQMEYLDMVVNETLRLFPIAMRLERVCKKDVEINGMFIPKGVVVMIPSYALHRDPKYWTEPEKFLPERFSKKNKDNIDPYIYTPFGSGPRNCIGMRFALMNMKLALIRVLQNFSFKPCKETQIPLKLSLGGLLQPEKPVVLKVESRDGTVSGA
row,SMILES,MBI 3A4
1,C[C@H](Oc1nc(-c2onc3c2CCC[C@@]32CCCc3sc(N)c(C#N)c32)nc2c1COC[C@]21CCOC1)[C@@H]1CCCN1C [I-54],83%
2,C[C@H](Oc1nc(-c2onc3c2CCC[C@@]32CCCc3sc(N)c(C#N)c32)nc2c1n(C)c(=O)n2[C@@H]1CCOC1)[C@@H]1CC[C@H](C)N1C [I-26],83%
3,C[C@H](Oc1nc(-c2onc3c2CCC[C@@]32CCCc3sc(N)c(C#N)c32)nc2c1n(C)c(=O)n2[C@@H]1CCOC1)C12CCCN1CCC2 [I-25],60%
4,C[C@H](Oc1nc(-c2onc3c2CCC[C@@]32CCCc3sc(N)c(C#N)c32)nc2c1[nH]c(=O)n2[C@@H]1CCOC1)[C@@H]1CCCN1C [I-8],61%
5,C[C@H](Oc1nc(-c2onc3c2CCC[C@@]32CCCc3sc(N)c(C#N)c32)nc2c1n(C)c(=O)n2[C@@]12COC[C@@H]1C2)[C@@H]1CCCN1C [I-29],79%
6,C[C@H](Oc1nc(-c2onc3c2CCC[C@@]32CCCc3sc(N)c(C#N)c32)nc2c1n(C)c(=O)n2[C@@H]1CCCOC1)[C@@H]1CCCN1C [I-12],75%
7,C[C@H](Oc1nc(-c2noc3c2CCC[C@@]32CCCc3sc(N)c(C#N)c32)nc2c1COC[C@]21CCOC1)[C@@H]1CCCN1C [II-8],85%
8,C[C@H](Oc1nc(-c2noc3c2CCC[C@@]32CCCc3sc(N)c(C#N)c32)nc2c1CC[C@]21CNCCO1)[C@@H]1C[C@@H](F)CN1C [II-20],95%
9,C[C@H](Oc1nc(-c2onc3c2CCC[C@@]32CCCc3sc(N)c(C#N)c32)nc2c1n(C)c(=O)n2[C@@H]1CCOC1)[C@@H]1CCCN1C [I-20],92%
10,C[C@H](Oc1nc(-c2onc3c2CCC[C@@]32CCCc3sc(N)c(C#N)c32)nc2c1n(C)c(=O)n2[C@H]1CCOC1)[C@@H]1CCCN1C [I-9],83%
11,C[C@H](Oc1nc(-c2noc3c2CCC[C@@]32CCCc3sc(N)c(C#N)c32)nc2c1CCO[C@]21CCOC1)[C@@H]1CCCN1C [II-9b],101%

# System: not listed separately
# Test: Caco-2 assay (permeability and efflux ratio)
# Type: in vitro ADME
# Details: human, Caco-2 apical to basolateral permeability, pH 7.4, read-out: Caco PappAB
# Description: (§1) The assay provides information on the potential of a compound to pass the cell membrane, on the extent of oral absorption as well as on whether the compound is actively transported by uptake and/or efflux transporters. Permeability measurements across polarized, confluent Caco-2 cell monolayers grown on permeable filter supports (Corning, catalog #3391) are used. 10 μM test compound solution in assay buffer (128.13 mM NaCl, 5.36 mM KCl, 1 mM MgSO4, 1.8 mM CaCl2), 4.17 mM NaHCO3, 1.19 mM Na2HPO4, 0.41 mM NaH2PO4, 15 mM 2-[4-(2-hydroxyethyl)piperazin-1-yl]ethanesulfonic acid (HEPES), 20 mM glucose, pH 7.4) was added to the donor compartment of the cell chamber containing a monolayer of Caco-2 cells in between the donor and the receiver compartment. The receiver and donor compartments contain 0.25% bovine serum albumine (BSA) in assay buffer. Passive diffusion and/or active transport of compounds across the monolayer is measured in both apical to basolateral (a-b) and basolateral to apical (b-a) direction. a-b permeability (PappAB) represents drug absorption from the intestine into the blood and b-a permeability (PappBA) drug secretion from the blood back into the intestine via both passive permeability as well as active transport mechanisms mediated by efflux and uptake transporters that are expressed on the Caco-2 cells. After a pre-incubation of 25-30 min at 37° C., at predefined time points (0, 30, 60 and 90 min), samples were taken from the receiver and donor compartment, respectively. Concentrations of test compounds in samples were measured by HPLC/MS/MS, samples from the donor compartment were diluted 1:50 (v:v) with assay buffer, samples from receiver compartment were measured without dilution.
# (§2) Apparent permeabilities in a-b (PappAB) and b-a (PappBA) directions are calculated according to the formula:
# (§3) [formula] • Vrec [mL]: buffer volume in receiver compartment • Cdon [μmol/mL]: concentration of test compound in donor compartment at t=0 • ΔCrec: difference between concentrations of test compound in receiver compartment at start and end of incubation time • Δt: Incubation time • Vrec·ΔCrec/Δt [μmol/min]: Amount of compound transferred to receiver compartment per time • A [cm^2]: filter surface
# (§4) Caco-2 efflux ratios (ER) are calculated as the ratio of PappBA/PappAB.
row,SMILES,"Papp A→B at 90 min, 10 μM"
1,CO[C@H]1CCN(C)[C@@H]1[C@H](C)Oc1nc(-c2onc3c2CCC[C@@]32CCCc3sc(N)c(C#N)c32)nc2c1CN(C1COC1)C[C@]21CCOC1 [I-57],35 ×10⁻⁶ cm/s
2,CCn1c(=O)n([C@@H]2CCOC2)c2nc(-c3onc4c3CCC[C@@]43CCCc4sc(N)c(C#N)c43)nc(O[C@@H](C)[C@@H]3CCCN3C)c21 [I-21],19 ×10⁻⁶ cm/s
3,C[C@H](Oc1nc(-c2onc3c2CCC[C@@]32CCCc3sc(N)c(C#N)c32)nc2c1CN(C1COC1)C[C@]21CCOC1)[C@@H]1CC[C@H](C)N1C [I-55],24 ×10⁻⁶ cm/s
4,C[C@H](Oc1nc(-c2onc3c2CCC[C@@]32CCCc3sc(N)c(C#N)c32)nc2c1n(C)c(=O)n2[C@@H]1CCOC1)[C@@H]1CC[C@H](C)N1C [I-26],43 ×10⁻⁶ cm/s
5,C[C@@H]1COC[C@H](n2c(=O)n(C)c3c(O[C@@H](C)[C@@H]4CCCN4C)nc(-c4onc5c4CCC[C@@]54CCCc5sc(N)c(C#N)c54)nc32)C1 [I-44],14 ×10⁻⁶ cm/s
6,C[C@H](Oc1nc(-c2onc3c2CCC[C@@]32CCCc3sc(N)c(C#N)c32)nc2c1n(C)c(=O)n2[C@@H]1CCOC1)C12CCCN1CCC2 [I-25],2.9 ×10⁻⁶ cm/s
7,C[C@H](Oc1nc(-c2onc3c2CCC[C@@]32CCCc3sc(N)c(C#N)c32)nc2c1[nH]c(=O)n2[C@@H]1CCOC1)[C@@H]1CCCN1C [I-8],0.8 ×10⁻⁶ cm/s
8,C[C@H](Oc1nc(-c2onc3c2CCC[C@@]32CCCc3sc(N)c(C#N)c32)nc2c1n(C)c(=O)n2[C@@]12COC[C@@H]1C2)[C@@H]1CCCN1C [I-29],19 ×10⁻⁶ cm/s
9,C[C@H](Oc1nc(-c2onc3c2CCC[C@@]32CCCc3sc(N)c(C#N)c32)nc2c1n(C)c(=O)n2[C@@H]1CCCOC1)[C@@H]1CCCN1C [I-12],25.5 ×10⁻⁶ cm/s
10,C[C@H](Oc1nc(-c2noc3c2CCC[C@@]32CCCc3sc(N)c(C#N)c32)nc2c1COC[C@]21CCOC1)[C@@H]1CCCN1C [II-8],23 ×10⁻⁶ cm/s
11,C[C@H](Oc1nc(-c2onc3c2CCC[C@@]32CCCc3sc(N)c(C#N)c32)nc2c1n(C)c(=O)n2[C@@H]1CCOC1)[C@@H]1CCCN1C [I-20],11.9 ×10⁻⁶ cm/s
12,C[C@H](Oc1nc(-c2onc3c2CCC[C@@]32CCCc3sc(N)c(C#N)c32)nc2c1n(C)c(=O)n2[C@H]1CCOC1)[C@@H]1CCCN1C [I-9],20 ×10⁻⁶ cm/s
13,C[C@H](Oc1nc(-c2noc3c2CCC[C@@]32CCCc3sc(N)c(C#N)c32)nc2c1CCO[C@]21CCOC1)[C@@H]1CCCN1C [II-9b],25 ×10⁻⁶ cm/s

# Same assay, conditions: human, pH 7.4, Caco-2 efflux ratio PappBA/PappAB, read-out: Caco ER
row,SMILES,"efflux ratio at 90 min, 10 μM"
1,CO[C@H]1CCN(C)[C@@H]1[C@H](C)Oc1nc(-c2onc3c2CCC[C@@]32CCCc3sc(N)c(C#N)c32)nc2c1CN(C1COC1)C[C@]21CCOC1 [I-57],1.3
2,CCn1c(=O)n([C@@H]2CCOC2)c2nc(-c3onc4c3CCC[C@@]43CCCc4sc(N)c(C#N)c43)nc(O[C@@H](C)[C@@H]3CCCN3C)c21 [I-21],3.8
3,C[C@H](Oc1nc(-c2onc3c2CCC[C@@]32CCCc3sc(N)c(C#N)c32)nc2c1CN(C1COC1)C[C@]21CCOC1)[C@@H]1CC[C@H](C)N1C [I-55],2.3
4,C[C@H](Oc1nc(-c2onc3c2CCC[C@@]32CCCc3sc(N)c(C#N)c32)nc2c1n(C)c(=O)n2[C@@H]1CCOC1)[C@@H]1CC[C@H](C)N1C [I-26],1
5,C[C@@H]1COC[C@H](n2c(=O)n(C)c3c(O[C@@H](C)[C@@H]4CCCN4C)nc(-c4onc5c4CCC[C@@]54CCCc5sc(N)c(C#N)c54)nc32)C1 [I-44],2.5
6,C[C@H](Oc1nc(-c2onc3c2CCC[C@@]32CCCc3sc(N)c(C#N)c32)nc2c1n(C)c(=O)n2[C@@H]1CCOC1)C12CCCN1CCC2 [I-25],18.6
7,C[C@H](Oc1nc(-c2onc3c2CCC[C@@]32CCCc3sc(N)c(C#N)c32)nc2c1[nH]c(=O)n2[C@@H]1CCOC1)[C@@H]1CCCN1C [I-8],46.3
8,C[C@H](Oc1nc(-c2onc3c2CCC[C@@]32CCCc3sc(N)c(C#N)c32)nc2c1n(C)c(=O)n2[C@@]12COC[C@@H]1C2)[C@@H]1CCCN1C [I-29],2.5
9,C[C@H](Oc1nc(-c2onc3c2CCC[C@@]32CCCc3sc(N)c(C#N)c32)nc2c1n(C)c(=O)n2[C@@H]1CCCOC1)[C@@H]1CCCN1C [I-12],1.7
10,C[C@H](Oc1nc(-c2noc3c2CCC[C@@]32CCCc3sc(N)c(C#N)c32)nc2c1COC[C@]21CCOC1)[C@@H]1CCCN1C [II-8],1.6
11,C[C@H](Oc1nc(-c2onc3c2CCC[C@@]32CCCc3sc(N)c(C#N)c32)nc2c1n(C)c(=O)n2[C@@H]1CCOC1)[C@@H]1CCCN1C [I-20],6.2
12,C[C@H](Oc1nc(-c2onc3c2CCC[C@@]32CCCc3sc(N)c(C#N)c32)nc2c1n(C)c(=O)n2[C@H]1CCOC1)[C@@H]1CCCN1C [I-9],2.7
13,C[C@H](Oc1nc(-c2noc3c2CCC[C@@]32CCCc3sc(N)c(C#N)c32)nc2c1CCO[C@]21CCOC1)[C@@H]1CCCN1C [II-9b],1.8

# System: Caco-2 cell monolayers
# Test: Caco-2 assay (permeability and efflux ratio)
# Type: in vitro ADME
# Details: Caco-2 apical to basolateral permeability, 10 μM, pH 7.4
# Description: as §1, §2, §3, §4
row,SMILES,Caco PappAB
1,C[C@H](Oc1nc(-c2noc3c2CCC[C@@]32CCCc3sc(N)c(C#N)c32)nc2c1CC[C@]21CNCCO1)[C@@H]1C[C@@H](F)CN1C [II-20],0.3 ×10⁻⁶ cm/s

# Same assay, conditions: Caco-2 efflux ratio PappBA/PappAB, 10 μM
row,SMILES,Caco ER
1,C[C@H](Oc1nc(-c2noc3c2CCC[C@@]32CCCc3sc(N)c(C#N)c32)nc2c1CC[C@]21CNCCO1)[C@@H]1C[C@@H](F)CN1C [II-20],303.8
